Data: BindingDB's records for doi:10.1016/j.bmcl.2021.128086 (Vrije Universiteit Brussel, 2021)
pIC50: −log10 of the molar value.

Target: T1, Type-2 angiotensin II receptor (Homo sapiens, UniProt P50052)
T1 sequence (P50052 whole entry): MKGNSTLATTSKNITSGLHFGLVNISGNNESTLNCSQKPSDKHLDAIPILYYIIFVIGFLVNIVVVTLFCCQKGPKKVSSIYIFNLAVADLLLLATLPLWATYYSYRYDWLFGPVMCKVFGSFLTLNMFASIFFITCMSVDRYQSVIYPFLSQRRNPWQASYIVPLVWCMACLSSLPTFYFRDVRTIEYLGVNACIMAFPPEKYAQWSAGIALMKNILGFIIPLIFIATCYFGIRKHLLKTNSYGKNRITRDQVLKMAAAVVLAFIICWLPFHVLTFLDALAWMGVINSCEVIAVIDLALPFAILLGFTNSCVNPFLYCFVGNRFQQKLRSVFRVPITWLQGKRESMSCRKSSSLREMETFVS
Experiment: Displacement of [125-I]-[Sar1, Ile8] from recombinant human AT2R transfected in human HEK293 cells incubated for 2 hrs by liquid scintillation counter analysis

## H-DRVYIYPF-OH
  pIC50: 8.40
